Measured values: patent US10844058B2, “Valbenazine salts and polymorphs thereof” (Neurocrine Biosciences, Inc., priority 2015, dated 2020)
Read-outs that look alike come from different tables or passages of the source.

Legend:
Assay type in all cases: physicochemical
[1] = Solubility of Form I in aqueous media by HPLC (Example 4); details: thermodynamic from solid, 22° C.
Protocol: (§1) The vials were shaken. After 1 hr, a sample (˜0.5 ml) was removed via syringe, and filtered through a syringe filter (0.2 micron) into a second vial. 200 μl of each solution was then transferred into an HPLC vial and made up to 1 ml by adding 800 μl of diluent. These samples were analyzed directly by HPLC, and the response was outside the linearity range. Therefore a second dilution was performed, taking 0.1 ml of each sample and making up to 2 ml with diluent. The samples were re-analyzed by HPLC. Then after shaking the suspensions for 18 hours in total, a second sample was taken as above. All samples were then diluted and analyzed by HPLC, as above. The temperature was noted (22° C.), and no gelling was observed.

[2] = Stability to humidity on storage (form by XRPD)
[3] = Long-term and accelerated stability studies of Form I (Example 6)
Protocol: The storage conditions include the long-term storage condition of 25±2° C./60±5% RH, the intermediate storage condition of 30±2° C./65±5% RH, and the accelerated storage condition of 40±±2° C./75±±5% RH.

[4] = Solubility of Form I in organic solvents by HPLC (Example 4); details: 22 °C, thermodynamic from solid
Protocol: as §1
The above procedure was repeated but using 8 different organic solvents in place of the aqueous media (analysis only after 18 hrs). Solvents used were acetonitrile, diethyl ether, ethanol, ethyl acetate, isopropanol, methanol, heptane and THF. All solvents gave suspensions at 100 mg/ml, except methanol which dissolved at 100 mg in 0.3 ml. […] These experiments were sampled once after 18 hours of slurrying.

[5] = Thermodynamic aqueous solubility; details: water, 25 °C, water, thermodynamic from solid, water, 25° C., 24 hours; at the pH of the next column; read-out: Aqueous solubility mg/mL free form
Protocol: The suspension was equilibrated at 25° C. for 24 hours then the pH was measured. The suspension was then filtered through a glass fibre C filter. […] Different volumes of the standard, diluted and undiluted sample solutions were injected.

[6] = Solubility of Formula I Form I in solvents, gravimetric analysis of mother liquors (Example 1); details: organic solvent or mixture, thermodynamic from solid
Protocol: The solubility was calculated by gravimetric analysis after evaporation of the mother liquors collected.

[7] = Gravimetric vapour sorption (GVS)
Protocol: The Gravimetric sorption isotherms were obtained using a Hiden IGASorp moisture sorption analyser, controlled by CFRSorp software. The sample temperature was maintained at 25° C. by a Huber re-circulating water bath. The humidity was controlled by mixing streams of dry and wet nitrogen, with a total flow rate of 250 ml/min. The relative humidity (RH) was measured by a calibrated Vaisala RH probe (dynamic range of 0-95% RH), located near the sample. The weight change, (mass relaxation) of the sample as a function of % RH was constantly monitored by the microbalance (accuracy 0.001 mg). Typically 10-20 mg of sample was placed in a tared mesh stainless steel basket at room temperature. The sample was loaded and unloaded at 40% RH and 25° C. (typical room conditions). The standard isotherm was performed at 25° C. at 10% RH intervals over a 0-90% RH range.

[8] = aqueous media, aqueous buffer, Aqueous pH 6.8
[9] = aqueous media, simulated gastric fluid, Aqueous pH 1.2
[10] = aqueous medium, aqueous buffer, Aqueous pH 4
[11] = aqueous medium, aqueous buffer, Aqueous pH 5

solubility at 1 h ([1]; aqueous media, aqueous buffer, Aqueous pH 3): 28.4 mg/mL
solubility at 1 h [1, 8]: 34 mg/mL
solubility at 18 h [1, 8]: 35.4 mg/mL
solubility at 1 h [1, 9]: 31.6 mg/mL
solubility at 18 h [1, 9]: 33.2 mg/mL
solubility at 18 h ([1]; aqueous medium, aqueous buffer, Aqueous pH 3): 28 mg/mL
solubility at 1 h [1, 10]: 28.1 mg/mL
solubility at 18 h [1, 10]: 27.8 mg/mL
solubility at 1 h [1, 11]: 18.6 mg/mL
solubility at 18 h [1, 11]: 27.9 mg/mL
Stability to humidity 25° C./92% RH ([2]; 25° C./92% RH): unchanged
Stability to humidity 40° C./75% RH ([2]; 40° C./75% RH): unchanged
Stability on storage ([3]; about 25° C. and about 60% relative humidity for about 24 months): stable
Stability on storage ([3]; about 40° C. and about 75% relative humidity for about 6 months): stable
Stability on storage ([3]; accelerated storage condition 40° C./75% RH, 3 months): chemical and physical stability
Stability on storage ([3]; long-term storage condition 25° C./60% RH, up to 3 months): chemical and physical stability
solubility at 18 h ([4]; organic solvent or mixture, Acetonitrile): 1.36 mg/mL
solubility at 18 h ([4]; organic solvent or mixture, Diethyl ether): 0.01 mg/mL
solubility at 18 h ([4]; organic solvent or mixture, Ethanol): 35.5 mg/mL
solubility at 18 h ([4]; organic solvent or mixture, Ethyl acetate): 0.04 mg/mL
solubility at 18 h ([4]; organic solvent or mixture, Heptane): 0.003 mg/mL
solubility at 18 h ([4]; organic solvent or mixture, Isopropanol): 1.15 mg/mL
solubility at 18 h ([4]; organic solvent or mixture, Methanol): 481 mg/mL
solubility at 18 h ([4]; organic solvent or mixture, THF): 0.05 mg/mL
solubility at 18 h ([4]; Water): 28.2 mg/mL
solubility at 24 h [5]: 15 mg/mL
solubility ([6]; 55 °C, MeOH (boiling point 65), 10° C. below reflux, read-out: Solubility at high temperature): > 250 mg/mL
solubility ([6]; 56 °C, THF (boiling point 66), 10° C. below reflux, read-out: Solubility at high temperature): 6 mg/mL
solubility ([6]; 67 °C, Ethyl Acetate (boiling point 77), 10° C. below reflux, read-out: Solubility at high temperature): 2 mg/mL
solubility ([6]; 68 °C, EtOH (boiling point 78), 10° C. below reflux, read-out: Solubility at high temperature): 212 mg/mL
solubility ([6]; 70 °C, MEK (boiling point 80), 10° C. below reflux, read-out: Solubility at high temperature): 4 mg/mL
solubility ([6]; 71 °C, Acetonitrile (boiling point 81), 10° C. below reflux, read-out: Solubility at high temperature): 48 mg/mL
solubility ([6]; 79 °C, IPA (boiling point 89), 10° C. below reflux, read-out: Solubility at high temperature): 22 mg/mL
solubility ([6]; 79 °C, Isopropyl Acetate (boiling point 89), 10° C. below reflux, read-out: Solubility at high temperature): 4 mg/mL
solubility ([6]; 88 °C, 1-propanol (boiling point 98), 10° C. below reflux, read-out: Solubility at high temperature): 160 mg/mL
solubility ([6]; 107 °C, MIBK (boiling point 117), 10° C. below reflux, read-out: Solubility at high temperature): 5 mg/mL
solubility ([6]; 1-propanol, 5° C., read-out: Solubility at 5° C. temperature): 8 mg/mL
solubility ([6]; Acetone, 5° C., read-out: Solubility at 5° C. temperature): 5 mg/mL
solubility ([6]; Acetonitrile, 5° C., read-out: Solubility at 5° C. temperature): 17 mg/mL
solubility ([6]; EtOH, 5° C., read-out: Solubility at 5° C. temperature): 24 mg/mL
solubility ([6]; Ethyl Acetate, 5° C., read-out: Solubility at 5° C. temperature): 1 mg/mL
solubility ([6]; IPA, 5° C., read-out: Solubility at 5° C. temperature): 5 mg/mL
solubility ([6]; Isopropyl Acetate, 5° C., read-out: Solubility at 5° C. temperature): 4 mg/mL
solubility ([6]; MEK, 5° C., read-out: Solubility at 5° C. temperature): 3 mg/mL
solubility ([6]; MIBK, 5° C., read-out: Solubility at 5° C. temperature): 6 mg/mL
solubility ([6]; MeOH, 5° C., read-out: Solubility at 5° C. temperature): > 250 mg/mL
solubility ([6]; THF, 5° C., read-out: Solubility at 5° C. temperature): 4 mg/mL
Stability to humidity GVS uptake ([7]; 25° C.): 1.0%
GVS mass increase ([7]; relative humidity from about 0% to about 95%, di(4-methylbenzenesulfonate)): less than 1%
SMILES: COc1cc2c(cc1OC)[C@H]1C[C@@H](OC(=O)[C@@H](N)C(C)C)[C@H](CC(C)C)CN1CC2.Cc1ccc(S(=O)(=O)O)cc1.Cc1ccc(S(=O)(=O)O)cc1 [Form I, (S)-(2R,3R,11bR)-3-isobutyl-9,10-dimethoxy-2,3,4,6,7,11b-hexahydro-1H-pyrido[2,1-a]isoquinolin-2-yl 2-amino-3-methylbutanoate di(4-methylbenzenesulfonate)]
